{
  "source": "patent US20140378531A1",
  "about": "“INHIBITION OF PATTERN RECOGNITION RECEPTORS IN PANCREATIC CANCER TREATMENT USING TLR INHIBITORS” (NEW YORK UNIVERSITY, priority 2012, published 2014)",
  "format_in_all_cases": "in vivo",
  "key": {"MAP Kinase": {"tested_on": "MAP Kinase", "assay": "MAP Kinase or NF-κB blockade in caerulein + ssRNA40 pancreatitis", "conditions": "mice, caerulein for 3 weeks + ssRNA40 + pathway blockade", "method": "FIG. 15. TLR7 agonists exacerbate pancreatic inflammation via NF-κB and MAP Kinase dependent mechanisms. Mice were treated for 3 weeks with caerulein to induce pancreatitis.\nIn vivo TLR7 ligation was accomplished by thrice weekly i.p administration of selective TLR7 agonists (ssRNA40, E. coli RNA, or Adenine analogue, all 100 μg/kg; Invivogen, San Diego, Calif.). TLR7 blockade was accomplished using an oligonucleotide inhibitor of TLR7 (Guiducci et al., 2010) (IRS661, 100 μg, 3× per week; Dynavax, Berkeley, Calif.). Bone marrow chimeric animals were created by irradiating mice ([…]) followed by i.v. bone marrow transfer (1×10^7 cells) from non-irradiated donors as described (Bedrosian et al., 2011) Chimeric mice were employed in experiments 7 weeks later. In selected experiments, to accelerate carcinogenesis in p48Cre;Kras^G12D mice, two doses of caerulein (50 μg/kg) were administered over 48 hours as described (Carriere et al., 2009). MAP Kinase signaling blockade was accomplished using the MKK inhibitor PD98059 (2.5 mg/kg/day), the p38 inhibitor SB203580 (30 mg/kg/day), or the JNK inhibitor SP600125 (50 mg/kg/day; all Invivogen). Selective NF-κB signaling blockade was accomplished using either the NEMO binding domain inhibitor (1 mg/kg/day, EMD4Biosciences, Gibbstown, N.J.) or the IkB inhibitor Bay11-7082 (1.25 mg/kg/day; Invivogen). […]"}, "TLR7": {"molecular_target": "T1, TLR7 (Mus musculus, UniProt P58681)", "T1 construct": "from tissue; host or cells: whole animal: p48Cre;Kras^G12D mice and WT C57BL/6 mice; TLR7 on pancreatic leukocytes and epithelial cells", "T1 sequence (P58681 27-1050)": "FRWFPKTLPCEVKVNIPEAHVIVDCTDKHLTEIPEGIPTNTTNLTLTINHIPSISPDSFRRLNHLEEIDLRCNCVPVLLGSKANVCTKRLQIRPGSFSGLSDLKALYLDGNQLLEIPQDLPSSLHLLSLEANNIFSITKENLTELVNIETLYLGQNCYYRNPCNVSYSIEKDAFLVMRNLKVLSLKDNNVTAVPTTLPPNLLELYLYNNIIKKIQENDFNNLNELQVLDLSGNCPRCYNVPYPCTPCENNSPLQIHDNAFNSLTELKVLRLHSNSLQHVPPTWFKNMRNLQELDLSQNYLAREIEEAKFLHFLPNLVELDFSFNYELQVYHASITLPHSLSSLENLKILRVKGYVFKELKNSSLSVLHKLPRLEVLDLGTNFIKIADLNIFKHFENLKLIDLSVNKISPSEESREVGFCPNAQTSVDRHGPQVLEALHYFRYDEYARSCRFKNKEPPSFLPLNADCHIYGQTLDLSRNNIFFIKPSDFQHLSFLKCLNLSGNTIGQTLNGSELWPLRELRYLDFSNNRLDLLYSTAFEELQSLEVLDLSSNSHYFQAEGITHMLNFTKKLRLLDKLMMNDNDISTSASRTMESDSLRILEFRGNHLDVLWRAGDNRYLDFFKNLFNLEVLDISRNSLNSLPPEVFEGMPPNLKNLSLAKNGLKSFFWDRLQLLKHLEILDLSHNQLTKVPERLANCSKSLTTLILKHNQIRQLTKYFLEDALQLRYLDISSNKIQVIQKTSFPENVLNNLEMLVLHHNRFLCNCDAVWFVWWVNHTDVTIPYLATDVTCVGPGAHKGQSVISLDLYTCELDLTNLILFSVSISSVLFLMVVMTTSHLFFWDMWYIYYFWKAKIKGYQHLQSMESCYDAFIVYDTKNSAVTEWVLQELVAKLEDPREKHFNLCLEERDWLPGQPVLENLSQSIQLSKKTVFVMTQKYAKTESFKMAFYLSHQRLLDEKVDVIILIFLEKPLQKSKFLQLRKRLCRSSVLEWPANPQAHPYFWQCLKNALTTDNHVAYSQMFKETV", "assay": "TLR7 blockade in caerulein-accelerated pancreatic carcinogenesis in p48Cre;Kras^G12D mice", "conditions": "caerulein 50 μg/kg, two doses over 48 hours"}, "[1]": {"assay": "L-arginine induced pancreatic injury", "conditions": "WT mice, L-arginine for one week"}},
  "data": [
    {"compound": "COc1cccc(-c2cc(=O)c3ccccc3o2)c1N", "note": "[PD98059]", "values": [
      {"measurement": "effects of TLR7 ligation on fibro-inflammatory pancreatic disease", "setting": "MAP Kinase", "result": "protected from effects of TLR7 ligation"}
    ]},
    {"compound": "caerulein", "values": [
      {"measurement": "pancreatic histology after caerulein alone", "setting": "TLR7", "result": "developed invasive pancreatic adenocarcinoma within an extensive bed of fibro-inflammatory stroma"}
    ]},
    {"compound": "N=C(N)NCCC[C@H](N)C(=O)O", "note": "[L-arginine]", "values": [
      {"measurement": "pancreatic injury", "setting": "[1]", "result": "induced mild pancreatic edema and inflammation"}
    ]}
  ]
}
